Results on two molecules are retold here after ChEMBL document CHEMBL6134844, “Development of Next-Generation Antimalarial Acridones with Radical Cure Potential” (J Med Chem, 2025).

Calls of active or inactive are those of the source.

In data set [1] the test system is Plasmodium yoelii. Nature of the data set: In vivo antiplasmodial activity against asexual blood-stage (ABS) Plasmodium yoelii MRA-428 infected in 4-day suppression CF1 mouse model assessed as reduction in parasitemia treated 24 hrs post infection daily measured on day 4. Format: functional.
Data set [2] can be described thus: MRTlast in male ICR-CD1 mouse liver at 40 mg/kg, po. In kind it is ADME, organism-based.
For data set [3], the system named is Plasmodium berghei. As to the kind of experiment: In vivo antiplasmodial activity against luciferase expressing liver stage Plasmodium berghei ANKA MRA-868 sporozoites infected in Albino C57BL/6 mouse model assessed as protection at 40 mg/kg, po daily measured 24 to 72 hrs by real-time In Vivo Imaging System (IVIS). In kind it is functional. The following applies: time 24-72 hrs.

A short description of data set [4]: Apparent oral clearance in male ICR-CD1 mouse plasma at 40 mg/kg, po. In kind it is ADME, organism-based. Particulars: in vivo.
Data set [5] is described as follows: Toxicity in CF1 mouse infected with asexual blood-stage (ABS) Plasmodium yoelii MRA-428 assessed as hunching at 0.3 to 30 mg/kg, po treated 24 hrs post infection measured after 4 days. In kind it is organism-based. The following applies: in vivo, 96 h, dose 0.3-30 mg/kg, time 4 day.
Data set [6] can be described thus: AUCextrap in male ICR-CD1 mouse plasma at 40 mg/kg, po. Format: ADME, organism-based.
Data set [7] concerns Plasmodium yoelii. Nature of the data set: In vivo antiplasmodial activity against asexual blood-stage (ABS) Plasmodium yoelii MRA-428 infected in 4-day suppression CF1 mouse model assessed as reduction in parasitemia by measuring protection at 10 mg/kg, po treated 24 hrs post infection daily for 4 days relative to control. In kind it is functional. Also on record: scale not given: the % may be the effect or the level left.

Data set [8] has as its system Plasmodium yoelii. Nature of the data set: In vivo antiplasmodial activity against asexual blood-stage (ABS) Plasmodium yoelii MRA-428 infected in 4-day suppression CF1 mouse model assessed as reduction in parasitemia by measuring cured mouse at 60 mg/kg, po single dose treated 24 hrs post infection. In kind it is functional, organism-based.
Data set [9] is described as follows: Selectivity index, ratio of CC50 for Macaca mulatta hepatocytes to IC50 for antiplasmodial activity against hypnozoite Plasmodium cynomolgi B strain infected in Macaca mulatta hepatocytes incubated with sporozoite containing salivary gland homogenate obtained from dissected Anopheles dirus mosquitoes (infected with Plasmodium cynomolgi B strain) treatment started on day 4 post infection and continued daily for 4 days into fresh changed media until day 8 assessed as Liver stage (LS) activity by measuring radical cure mode by immunofluorescent staining analysis. Format: toxicity, cell-based. Particulars: rhesus monkey, read-out: Selectivity Index.

Data set [10] concerns Plasmodium falciparum. Nature of the data set: Antiplasmodial activity against asexual blood-stage (ABS) MDR Plasmodium falciparum Dd2 infected in human erythrocytes assessed as reduction in fluorescence measured after 72 hrs by Malaria SYBR Green I-based Fluorescence (MSF) assay. In kind it is functional, organism-based. The following applies: Dd2, Erythrocyte.
Data set [11] can be described thus: Half life in male ICR-CD1 mouse plasma at 40 mg/kg, po. Format: ADME, organism-based.
A short description of data set [12]: AUClast in male ICR-CD1 mouse plasma at 40 mg/kg, po. In kind it is ADME, organism-based.
Data set [13] can be described thus: MRTlast in male ICR-CD1 mouse plasma at 40 mg/kg, po. Format: ADME, organism-based.
Data set [14] can be described thus: AUC(0 to infinity) in male ICR-CD1 mouse plasma at 40 mg/kg, po. The following applies: in vivo. Format: ADME, organism-based.
The subject of data set [15] is Plasmodium yoelii. As to the kind of experiment: In vivo antiplasmodial activity against asexual blood-stage (ABS) Plasmodium yoelii MRA-428 infected in 4-day suppression CF1 mouse model assessed as reduction in parasitemia by measuring protection at 30 mg/kg, po treated 24 hrs post infection daily measured up to 28 days. In kind it is functional, organism-based. Particulars: time <= 28.0 day.

Data set [16] is described as follows: Apparent oral clearance in male ICR-CD1 mouse liver at 40 mg/kg, po. In kind it is ADME, organism-based.
The nature of data set [17]: Toxicity in CF1 mouse infected with asexual blood-stage (ABS) Plasmodium yoelii MRA-428 assessed as clinical toxicity at 0.3 to 30 mg/kg, po treated 24 hrs post infection measured after 4 days. Format: organism-based. Particulars: in vivo, dose 0.3-30 mg/kg.
Data set [18] in a line: Mutagenicity in Salmonella typhimurium TA100 assessed as background reversion rate up to 10 uM without S-9 metabolic activation by AMES test. Format: toxicity. Particulars: salmonella enterica subsp. enterica serovar typhimurium.
Data set [19] has as its target Voltage-gated inwardly rectifying potassium channel KCNH2 (Homo sapiens, UniProt Q12809). Nature of the data set: Inhibition of hERG expressed in HEK293 cells by manual patch clamp assay. Format: toxicity, cell-based. (In general: Block of hERG is tested as a sign of cardiac risk.)
Data set [20] relates to Plasmodium falciparum. As to the kind of experiment: Antiplasmodial activity against Plasmodium falciparum Dd2 measured after 72 hrs by drug susceptibility test. In kind it is functional, organism-based. The following applies: Dd2, 72 h.
The subject of data set [21] is Plasmodium falciparum. Nature of the data set: Synergistic antiplasmodial activity against multi-drug resistant Plasmodium falciparum Tm90-C2B assessed as fractional inhibitory concentration in presence of tafenoquine. Format: functional.
The subject of data set [22] is Plasmodium falciparum. Nature of the data set: Ex vivo antiplasmodial activity against clinical isolate Plasmodium falciparum isolated from Ugandan measured after 72 hrs by growth inhibition assay. Format: functional, organism-based.
The conditions of data set [23]: mouse, microsomes, 1 h.
The subject of data set [24] is Plasmodium falciparum. As to the kind of experiment: Antiplasmodial activity against AART-resistant Plasmodium falciparum DR4 measured after 72 hrs by drug susceptibility test. Format: functional, organism-based. The following applies: DR4, 72 h.
Data set [25] has as its system Plasmodium falciparum. As to the kind of experiment: Antiplasmodial activity against AART-resistant Plasmodium falciparum DR1 measured after 72 hrs by drug susceptibility test. In kind it is functional, organism-based. Particulars: DR1, 72 h.
Data set [26] has as its system Plasmodium berghei. Nature of the data set: In vivo antiplasmodial activity against luciferase expressing liver stage Plasmodium berghei ANKA MRA-868 sporozoites infected in Albino C57BL/6 mouse model assessed as cured mouse at 40 mg/kg, po daily measured after 31 days. Format: functional, organism-based. Particulars: time 31.0 day.
The test system of data set [27] is Plasmodium falciparum. As to the kind of experiment: Synergistic antiplasmodial activity against pan-sensitive Plasmodium falciparum D6 assessed as fractional inhibitory concentration in presence of tafenoquine. Format: functional.

Sequence of Voltage-gated inwardly rectifying potassium channel KCNH2 (Q12809 whole entry): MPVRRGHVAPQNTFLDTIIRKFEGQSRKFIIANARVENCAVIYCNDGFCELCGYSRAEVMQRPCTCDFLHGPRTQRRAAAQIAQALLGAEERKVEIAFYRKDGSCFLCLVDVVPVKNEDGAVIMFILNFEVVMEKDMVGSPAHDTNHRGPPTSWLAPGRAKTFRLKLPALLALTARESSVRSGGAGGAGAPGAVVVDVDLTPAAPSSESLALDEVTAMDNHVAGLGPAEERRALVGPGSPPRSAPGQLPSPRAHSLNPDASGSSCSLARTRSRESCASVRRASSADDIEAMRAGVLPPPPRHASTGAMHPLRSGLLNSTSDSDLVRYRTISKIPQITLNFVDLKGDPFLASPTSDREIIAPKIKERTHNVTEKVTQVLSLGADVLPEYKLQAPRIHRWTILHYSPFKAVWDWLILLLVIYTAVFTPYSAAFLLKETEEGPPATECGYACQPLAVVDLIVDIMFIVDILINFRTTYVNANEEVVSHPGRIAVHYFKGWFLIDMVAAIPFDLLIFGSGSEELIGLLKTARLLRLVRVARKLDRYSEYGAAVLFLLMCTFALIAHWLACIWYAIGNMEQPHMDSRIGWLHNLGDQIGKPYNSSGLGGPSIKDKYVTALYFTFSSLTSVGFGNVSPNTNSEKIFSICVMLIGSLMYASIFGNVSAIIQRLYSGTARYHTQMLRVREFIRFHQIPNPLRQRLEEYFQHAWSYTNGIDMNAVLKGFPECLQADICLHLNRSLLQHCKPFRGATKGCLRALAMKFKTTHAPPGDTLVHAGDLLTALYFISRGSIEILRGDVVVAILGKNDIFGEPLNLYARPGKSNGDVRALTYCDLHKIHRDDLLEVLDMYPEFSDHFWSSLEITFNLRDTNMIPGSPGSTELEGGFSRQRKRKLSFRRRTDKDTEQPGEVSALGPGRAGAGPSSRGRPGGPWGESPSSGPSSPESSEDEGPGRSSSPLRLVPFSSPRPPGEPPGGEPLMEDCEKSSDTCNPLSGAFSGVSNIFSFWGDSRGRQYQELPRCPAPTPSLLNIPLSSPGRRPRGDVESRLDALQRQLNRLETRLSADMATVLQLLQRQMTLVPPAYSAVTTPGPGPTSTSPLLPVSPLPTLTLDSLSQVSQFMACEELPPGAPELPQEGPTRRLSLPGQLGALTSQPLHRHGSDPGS

As usually defined, the ED50 is the dose at which the effect has come halfway, by size or by number of responders. Usually MRT last stands for a mean duration of stay, worked out from the concentration-time curve. The CL/F is the apparent clearance, not corrected for the fraction that reaches the circulation. As a reminder, the IC50 is the concentration that gives 50% inhibition. As a reminder, the half-life is the time needed for the level to fall by half in the phase considered. The AUC(0-t) is exposure summed from dosing to a finite time, without extrapolation to infinity. `O=c1c2c([nH]c3cc(Oc4ccc(OC(F)(F)F)cc4)c(F)cc13)CCCC2`: the ED50 in the data set on Plasmodium yoelii [1] is 1.5 mg/kg. The ED90 in the data set with Plasmodium yoelii [1] stood at 4.7 mg/kg. The MRT last in data set [2] is 5.64 h; in [13], 2.95 h. The Activity in the data set on Plasmodium berghei [3] is on record as 100%; in [5], “Non-toxic”; with Plasmodium yoelii [7], 100%; in the data set on Plasmodium yoelii [15], “Active; Out Of 4 - 3 Mouse Cured”; in [17] it was “Non-toxic”; in data set [18] it was “Non-toxic”. Further, the CL/F in data set [4] was 87.98 mL/min/kg; in data set [16], 3.58 mL/min/kg. In addition, the AUC in data set [6] turned out to be 23.7%; in [14], 219 ng·h/mL. Further, the result in the data set with Plasmodium yoelii [8] was Active. For the same molecule, in data set [9], the selectivity ratio at 96 h turned out to be 1.49. The IC50 with Plasmodium falciparum [10] was 0.268 nM. For the same molecule, the half-life in data set [11] is 3.89 h. Besides, in data set [12], the AUC(0-t) turned out to be 167 ng·h/mL.

As for `O=c1c2c([nH]c3cc(Oc4ccc(OC(F)(F)F)cc4)ccc13)CCCC2`, the MRT last in data set [2] amounted to 5.16 h; in [13], 4.1 h. Also, the Activity in the data set with Plasmodium berghei [3] is 100%; in data set [5] it was “Non-toxic”; with Plasmodium berghei [26] it was “Active; Out Of 5 - 5 Mouse Cured”; with Plasmodium yoelii [15], “Active; Out Of 4 - 3 Mouse Cured”; in [17] it was “Non-toxic”; in data set [18], “Non-toxic”. Moreover, the IC50 in data set [19] is above 10000 nM; in the data set on Plasmodium falciparum [20], 2.06 nM; with Plasmodium falciparum [22] it was 10.5 nM; in the data set on Plasmodium falciparum [10] it was 0.253 nM; with Plasmodium falciparum [24] it was 5.35 nM; with Plasmodium falciparum [25], 5.26 nM. The outcome in the data set on Plasmodium yoelii [8] was Active. For the same molecule, the FIC came out at 0.76 in the data set on Plasmodium falciparum [21] and 0.81 in the data set on Plasmodium falciparum [27]. Further, the selectivity ratio at 96 h in data set [9] is 1.11. The t1/2 in [23] turned out to be 0.197 h. The molecule further came in with an AUC(0-t) in data set [12] of 472 ng·h/mL. The CL/F in data set [16] is 0.542 mL/min/kg.
